Experimental data from EP1143981B1, “USE OF N-GLYCOLNEURAMINIC ACID AND ITS DERIVATIVES FOR THE MANUFACTURE OF A MEDICAMENT FOR THE TREATMENT OF HIV INFECTIONS” (Glukor, Inc., priority 1998, dated 2000).
pIC50: −log10 of the molar value. Values joined by “and” are separate entries in the source; they are usually repeats but may differ in a detail not shown here. Identical values can stand only once.

Tested on: HIV-1ROJO
Experiment: Reverse transcriptase activity assay in infected PBMCs
Type: cell-based
Conditions: for RT activity % VC: % virus control; for RT Activity (cpm) / Reverse Transcriptase (RT) Activity (cpm): single samples; for pIC50: Human immunodeficiency virus 1, PBMC
Text: PBMCs were isolated from fresh human blood obtained commercially from the American Red Cross (Baltimore, Maryland). CEM-SS cells were obtained from the NIH AIDS reagent program. The low passage, lymphotropic clinical isolate ROJO was obtained from a pediatric patient attending the AIDS Clinic at the University of Alabama at Birmingham. Phytohemagglutinin (PHA-P) was obtained from Sigma Chemical Co. (St. Louis, MO) and recombinant IL-2 was obtained from Amgen (San Francisco, CA). As a positive control for antiviral assays, AZT was obtained from the NIH AIDS Reagent Program. HIV-1RF also was obtained from the NIH AIDS reagent program. Tritiated thymidine triphosphate was obtained from New England Nuclear (Boston, MA). Each plate in each experiment contained cell control wells (cells only), virus control wells (cells plus virus), drug toxicity control wells (cells plus drug only), drug colorimetric control wells (drug only) as well as experimental wells (drug plus cells plus virus).
Fresh human PBMCs were isolated from voluntary Red Cross donors, seronegative for HIV and HBV. Leukophoresed blood was diluted 1:1 with Dulbecco's PBS, layered over 14 mL of Ficoll-Hypaque density gradient in a 50mL centrifuge and then centrifuged for 30 minutes at 600 x g. Banded PBMCs were gently aspirated from the resulting interface and subsequently washed twice with PBS by low speed centrifugation. […] PBMCs were maintained in this medium at a concentration of 1-2 x 10^6 cells/mL with bi-weekly medium changes until used in the assay.
For the standard PBMC assay, PHA-P stimulated cells from at least two normal donors were pooled, diluted in fresh medium to a final concentration of 1 x 10^6 cells/mL, and plated in the interior wells of a 96 well round bottom microplate at 50 µL/well (5 x 10^4 cells/well). Test drug dilutions were prepared at a 2X concentration in microfuge tubes and 100 µL of each concentration was placed in appropriate wells in a standard format. A predetermined dilution of virus stock was placed in each test well (50 µL, final MOI ≅ 0.1). Wells with cells and virus alone were used for virus control. Separate plates were prepared identically without virus for drug cytotoxicity studies using an XTT assay system. The PBMC cultures were maintained for seven days following infection, at which time cell-free supernatant samples were collected and assayed for reverse transcriptase activity as described below.
Virus Preparation: Pre-tittered aliquots of HIV-1ROJO and HIV-1RF were removed from the freezer (-80°C) and thawed to room temperature in a biological safety cabinet. The virus was resuspended and diluted into tissue culture medium such that the amount of virus added to each well in a volume of 50 µL will be the amount determined to give complete cell killing at 6 days post-infection.
Reverse Transcriptase Activity Assay: A microtiter based reverse transcriptase (RT) reaction was utilized as described by Buckheit et al., (1991), AIDS Research and Human Retroviruses, 7:295-302. Tritiated thymidine triphosphate (^3H-TTP) was suspended in distilled H2O at 5 Ci/mL. Poly rA and oligo dT were prepared as a stock solution which was kept at -20°C. RT reaction buffer was prepared fresh on a daily basis and contained 125 µL 1M EGTA, 125 µL dH2O, 110 µL 10% SDS, 50 µL 1M Tris (pH 7.4), 50 µL 1M DTT, and 40 µL 1M MgCl2. These three solutions were mixed together in a ratio of 2 parts ^3H-TTP, 1 part poly rA:oligo dT, and 1 part reaction buffer. Ten microliters of this reaction mixture were placed in a round bottom microtiter plate and 15 µL of virus containing supernatant were added and mixed. The plate was incubated at 37°C in a water bath with a solid support to prevent submersion of the plate and incubated for 60 minutes.

[1] = 0.0001 mM, simultaneously exposed to drug and HIV
[2] = 0.00032 mM, 2-hour pretreatment
[3] = 0.00032 mM, simultaneously exposed to drug and HIV
[4] = 0.001 mM, simultaneously exposed to drug and HIV
[5] = 0.0032 mM, simultaneously exposed to drug and HIV
[6] = 0.01 mM, simultaneously exposed to drug and HIV
[7] = 0.032 mM, simultaneously exposed to drug and HIV
[8] = 0.1 mM, simultaneously exposed to drug and HIV
[9] = 0.32 mM, simultaneously exposed to drug and HIV
[10] = 1 mM, simultaneously exposed to drug and HIV

O=C(CO)N[C@H]1[C@H]([C@H](O)[C@H](O)CO)OC(O)(C(=O)O)C[C@@H]1O (stereo partly shown) [N-glycolylneuraminic acid]
Reverse Transcriptase (RT) Activity (cpm), Mean (0.0001 mM, 2-hour pretreatment): 2763.7 cpm | RT activity % VC (0.0001 mM, 2-hour pretreatment): 134.2% | RT Activity (cpm), Mean [1]: 2348.3 cpm | RT activity % VC [1]: 78.5% | RT Activity (cpm) [1]: 2423.0 cpm and 2253.0 cpm and 2369.0 cpm | Reverse Transcriptase (RT) Activity (cpm), Mean [2]: 2015.3 cpm | RT activity % VC [2]: 97.8% | RT Activity (cpm), Mean [3]: 2795.0 cpm | RT activity % VC [3]: 93.4% | Reverse Transcriptase (RT) Activity (cpm), Mean (0.001 mM, 2-hour pretreatment): 1867.0 cpm | RT activity % VC (0.001 mM, 2-hour pretreatment): 90.6% | RT Activity (cpm), Mean [4]: 3108.7 cpm | RT activity % VC [4]: 103.9% | Reverse Transcriptase (RT) Activity (cpm), Mean (0.0032 mM, 2-hour pretreatment): 2529.0 cpm | RT activity % VC (0.0032 mM, 2-hour pretreatment): 122.8% | Reverse Transcriptase (RT) Activity (cpm) (0.0032 mM, 2-hour pretreatment): 2381.0 cpm and 3368.0 cpm and 1838.0 cpm | RT Activity (cpm), Mean [5]: 2892.7 cpm | RT activity % VC [5]: 96.7% | Reverse Transcriptase (RT) Activity (cpm), Mean (0.01 mM, 2-hour pretreatment): 951.3 cpm | RT activity % VC (0.01 mM, 2-hour pretreatment): 46.2% | RT Activity (cpm), Mean [6]: 2163.3 cpm | RT activity % VC [6]: 72.3% | RT Activity (cpm) [6]: 2284.0 cpm and 2280.0 cpm and 1926.0 cpm | Reverse Transcriptase (RT) Activity (cpm), Mean (0.032 mM, 2-hour pretreatment): 561.7 cpm | RT activity % VC (0.032 mM, 2-hour pretreatment): 27.3% | RT Activity (cpm), Mean [7]: 1867.3 cpm | RT activity % VC [7]: 62.4% | RT Activity (cpm) [7]: 1814.0 cpm and 2094.0 cpm and 1694.0 cpm | Reverse Transcriptase (RT) Activity (cpm), Mean (0.1 mM, 2-hour pretreatment): 459.0 cpm | RT activity % VC (0.1 mM, 2-hour pretreatment): 22.3% | RT Activity (cpm), Mean [8]: 906.3 cpm | RT activity % VC [8]: 30.3% | Reverse Transcriptase (RT) Activity (cpm), Mean (0.32 mM, 2-hour pretreatment): 146.7 cpm | RT activity % VC (0.32 mM, 2-hour pretreatment): 7.1% | Reverse Transcriptase (RT) Activity (cpm) (0.32 mM, 2-hour pretreatment): 196.0 cpm and 140.0 cpm and 104.0 cpm | RT Activity (cpm), Mean [9]: 102.7 cpm | RT Activity (cpm) [9]: 132.0 cpm and 108.0 cpm and 68.0 cpm | Reverse Transcriptase (RT) Activity (cpm), Mean (1 mM, 2-hour pretreatment): 76.0 cpm | RT activity % VC (1 mM, 2-hour pretreatment): 3.7% | Reverse Transcriptase (RT) Activity (cpm) (1 mM, 2-hour pretreatment): 72.0 cpm and 68.0 cpm and 88.0 cpm | RT Activity (cpm), Mean [10]: 204 cpm | RT activity % VC [10]: 6.8% | pIC50 (PBMCs, 2hr pretreatment): ~5.00 | pIC50 (PBMCs, simultaneously exposed to drug and HIV, without a pretreatment): ~4.24 | TI (PBMCs, simultaneously exposed to drug and HIV): > 17.25 | anti-HIV activity (PBMCs, with and without a 2hr pretreatment of the cells): active
